Values quoted from earlier work in patent US10258598B2, “Compounds for use in the prevention or treatment of cancer” ([…], priority 2014, dated 2019).
Structures can show the parent of a compound that is named as a salt.

System: norepinephrine and dopamine stores in catecholaminergic neurons in the brain stem
Conditions: 1 mg/kg s.c.; cited from earlier work

In the case of `COc1cc2c(cc1OC)C1CC(=O)C(CC(C)C)CN1CC2` (stereo not shown) [Tetrabenazine, Tetrabenazine HCl], the “depletion of norepinephrine and dopamine from their stores” value is listed as “at least 90%”.
